In brackets after ≈: the same amount, converted by molar mass.

The nature of series [1]: Aqueous solubility in PBS pH 7.4 by LC-MS/MS. The format is physicochemical. How it is done:
Solubility. Ten microliters of a 10 mM solution of tested compounds were diluted either in 490 µL of PBS pH 7.4 or MeOH and agitated for 24 h at 250 rpm. The obtained solutions were first centrifuged for 5 min at 4,000 rpm and then further diluted adding 10 μL of each sample to 490 µL of MeOH. Samples were analyzed by LC-MS/MS and the ratio of mass signal area obtained in PBS and in organic solvent was then measured and used to determine solubility.

The nature of series [2]: LogD octanol/PBS pH 7.4. Type of series: physicochemical. As for the experimental part: LogD. Measurements 40 µL of selected compounds were dissolved in 1960 µL of PBS pH 7.4/Octanol. Samples were shacked for 2 h at rt, 10 µL of each phase were withdrawn, diluted in 490 µL of MeOH, and analyzed by LC-MSMS. The ratio of mass signal area obtained in octanol and PBS at pH 7.4 and in organic solvent was employed to calculate LogD.

A short description of series [3]: Metabolic stability in human liver microsomes. Type of series: in vitro ADME. How it is done:
Metabolic Stability. All compounds were tested at the final concentration of 1 µM in a 50 mM potassium phosphate buffer (pH 7.4) containing 1% DMSO as vehicle. For microsomes assay, the incubation mixtures contained 0.15 mg of Human liver microsomes (Sigma-Aldrich, St. Louis, MO, United States), 5 mM MgCl2, 1 mM NADPH, 5 mM glucose 6-phosphate, 0.4 U mL^−1 glucose 6-phosphate dehydrogenase. For S9 fraction analysis, the buffer contained 0.15 mg of S9 proteins (Sigma-Aldrich, St. Louis, MO, United States), 0.3 mM NADPH, 5.6 mM glucose-6-phosphate, 0.6 units/mL glucose-6-phosphate dehydrogenase, 5.8 mM UDP-glucuronic acid, 0.05 mM acetyl-CoA, 0.5 mM dithiothreitol, 0.5 mM 3′-phosphoadenosine 5′-phosphosulfate, 1 mM glutathione, 0.2 mM acetyl carnitine, 4 units/mL carnitine acetyl transferase, 0.5 mM glycine, and 0.5 mM taurine.
Samples were kept at 37°C and aliquots were removed at 0, 5, 15, 30, 45, 60, 90, 120, 150 min after protein additions. The reaction was stopped by adding 200 µL of ice-cold acetonitrile to withdrawn aliquots. After 2 h, samples were centrifuged for 10 min at 10,000 rpm, and supernatants were subjected to LC-MS/MS analysis.
The slope of the linear regression of the curve obtained reporting the natural logarithm of compound area versus incubation time (−k) was used in the conversion to in vitro t1/2 values by t1/2 = […].
In vitro intrinsic clearance (Clint expressed as µL/min/mg) was calculated according to the following formula: Clint = Vx 0.693/t1/2 were V = volume of reaction (µL)/protein in the incubation (mg). Testosterone was used as a positive control for microsome and phase I enzymes, and 7-hydroxycoumarin was used as positive control for phase II enzymes.
In general terms: Microsomes from liver hold many membrane-bound enzymes, among them those of drug oxidation.

Series [4] is described as follows: In vivo stability: amount of compound 2 in plasma of mice. Conditions: 30 mg/kg. How it is done:
The amount of compound 2 in plasma samples of animals treated with compound 2 was evaluated measuring the peak area of the compound at 1, 6, and 24 h after administration. 50 μL of plasma samples were mixed with 200 μL of acetonitrile, vortexed and incubated for 1 h on ice. Samples were then centrifuged for 10 min at 10,000 rpm and supernatants were evaporated to dryness. For LC/MS-MS analysis a QTRAP 6500 System (AB Sciex) equipped with Shimadzu LC-20A LC and AutoSampler was employed. […] The transition 356 →143 was employed for quantification. The following parameters were set: positive mode, DP 120 eV, EP 12 eV, CE 40 eV, CXP 23 V, CUR 30 psi, CAD Medium, IS 5500 V, TEM 350°C, GS1 and GS2 50 psi.
Given the promising results obtained during in vitro pharmacokinetics studies, the profile of disappearance of compound 2 was also evaluated in vivo. Mice were treated with compound 2 and plasma samples withdrawn 1, 6, and 24 h after administration were analyzed by LC-MSMS to evaluate the concentration of compound 2.

What is called solubility is the concentration that dissolves in the medium under given conditions. A lower solubility goes with little dissolved substance. In general, logD refers to the decadic logarithm of the distribution of all forms, ionised or not, between an organic phase and buffer at a given pH. Lower therefore signals lower lipophilicity. One may read the microsomal CLint as a measure of how fast metabolising enzymes remove a compound, apart from limits set by blood flow. A higher microsomal CLint goes with rapid turnover. With `O=C(O)c1cccc(-c2ccc(OCc3ccc4ccccc4n3)cc2)c1` [Compound 2, 4'-(quinolin-2-ylmethoxy)-[1,1′-biphenyl]-3-carboxylic acid], the Solubility entry in series [1] is “good”. The solubility at 24 h in series [1] (PBS pH 7.4) amounted to 66 µM (≈ 23.5 µg/mL). Besides, the LogD entry in series [2] is “proper”. In series [2] (octanol/PBS), this compound registered a logD at 2 h of 2. The “stability to Phase I enzymes contained in microsomal fraction” value in series [3] was “highly stable”. This compound displayed a microsomal CLint at 1 µM in series [3] (pH 7.4, human liver microsomes, 1 µM) of 4 µL/min/mg. In addition, the half-life at 1 µM in series [3] (pH 7.4, human liver microsomes, 1 µM, read-out: Microsomes t1/2) is 9.63 h. Moreover, the “compound remaining in plasma” value in series [4] (6 h after administration) is listed as “considerable percentage of compound 2 is still present”; in series [4] (24 h after administration) it was “approximately 20%”.

Source of the values: PMC9085577, “Discovery of a Potent and Orally Active Dual GPBAR1/CysLT1R Modulator for the Treatment of Metabolic Fatty Liver Disease” (Frontiers in Pharmacology, 2022).
